US10688189B1, “Modulated guanidine-containing polymers or nanoparticles” (THE FLORIDA INTERNATIONAL BOARD OF TRUSTEES, priority 2017, dated 2020)
One block for each compound: values may come before it.

How the values were obtained:
[1] = target: T1, CFTR (Homo sapiens, UniProt P13569); experiment: Ussing chamber apical CFTR activity in NHBE cells; format: cell-based; conditions: FIG. 12
T1 construct: CFTR is located at the apical side (mucosal) of the airway epithelium; endogenous in cells; host or cells: primary NHBE cells, re-differentiated 21 days at the air-liquid interface
Text: Ussing chamber electrophysiology was used to confirm re-differentiation and polarization as per: Unwalla et al., Am. J. Respir. Cell. Mol. Biol. 2015, 52 (1), 65-74; and Chinnapaiyan et al., Sci Rep. 2018, 8(1), 7984. CFTR is located at the apical side (mucosal) of the airway epithelium. Briefly, NHBE cultures were re-differentiated at the air-liquid interface. Following re-differentiation for 21 days, the snap wells were removed from supports and mounted in Ussing chambers. The short circuit current was measured and allowed to stabilize followed by addition of amiloride (10 μM) added apically to eliminate epithelial sodium channel (ENaC) influences. CFTR activation was affected by addition of albuterol (10 μM) and change in short circuit current (ΔISC) was determined. CFTR specificity was confirmed by addition of CFTR inhibitor CFTRinh172 (20 μM) and the decrease in ΔISC was recorded.

[2] = cited from earlier work

T1 sequence (P13569 whole entry): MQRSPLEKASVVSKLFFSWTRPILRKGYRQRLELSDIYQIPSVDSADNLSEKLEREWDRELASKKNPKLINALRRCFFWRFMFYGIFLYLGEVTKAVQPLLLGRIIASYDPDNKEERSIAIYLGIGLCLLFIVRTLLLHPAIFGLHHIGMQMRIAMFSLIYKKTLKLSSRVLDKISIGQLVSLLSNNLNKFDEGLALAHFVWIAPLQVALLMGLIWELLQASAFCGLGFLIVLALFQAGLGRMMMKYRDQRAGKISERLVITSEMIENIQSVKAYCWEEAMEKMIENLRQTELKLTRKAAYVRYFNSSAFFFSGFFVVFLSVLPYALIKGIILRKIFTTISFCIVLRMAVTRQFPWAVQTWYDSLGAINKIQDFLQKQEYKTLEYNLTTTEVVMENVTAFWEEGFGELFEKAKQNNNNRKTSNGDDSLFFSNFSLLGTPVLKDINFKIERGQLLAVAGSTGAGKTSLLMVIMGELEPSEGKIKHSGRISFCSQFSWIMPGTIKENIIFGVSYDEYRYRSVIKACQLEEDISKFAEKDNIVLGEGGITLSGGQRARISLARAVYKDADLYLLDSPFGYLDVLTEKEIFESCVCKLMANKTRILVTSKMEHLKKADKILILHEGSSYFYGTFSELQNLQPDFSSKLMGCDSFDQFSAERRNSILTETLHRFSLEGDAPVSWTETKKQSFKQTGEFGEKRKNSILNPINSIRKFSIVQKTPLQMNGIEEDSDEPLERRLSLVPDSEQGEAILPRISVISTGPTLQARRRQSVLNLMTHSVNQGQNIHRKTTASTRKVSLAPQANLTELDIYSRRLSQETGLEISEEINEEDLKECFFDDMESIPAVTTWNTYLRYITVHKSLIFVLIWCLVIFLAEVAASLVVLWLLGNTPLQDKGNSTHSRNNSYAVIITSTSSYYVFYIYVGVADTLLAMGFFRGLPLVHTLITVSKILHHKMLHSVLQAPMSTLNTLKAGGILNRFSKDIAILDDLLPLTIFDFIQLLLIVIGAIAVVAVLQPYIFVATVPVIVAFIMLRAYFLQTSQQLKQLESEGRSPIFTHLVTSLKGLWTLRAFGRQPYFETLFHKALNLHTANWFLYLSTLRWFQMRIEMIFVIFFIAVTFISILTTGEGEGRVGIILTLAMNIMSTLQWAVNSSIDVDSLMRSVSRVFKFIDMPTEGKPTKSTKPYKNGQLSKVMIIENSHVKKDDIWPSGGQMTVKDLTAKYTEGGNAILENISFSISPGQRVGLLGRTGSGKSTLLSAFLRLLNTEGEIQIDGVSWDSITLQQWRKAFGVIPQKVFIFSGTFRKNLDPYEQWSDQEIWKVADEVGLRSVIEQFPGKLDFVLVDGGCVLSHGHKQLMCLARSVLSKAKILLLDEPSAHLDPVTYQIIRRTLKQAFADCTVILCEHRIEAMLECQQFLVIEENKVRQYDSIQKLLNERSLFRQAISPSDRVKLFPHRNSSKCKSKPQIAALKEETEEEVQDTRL

short circuit current after CFTR inhibitor ([1]; 20 μM after albuterol): decreased current
SMILES: O=C(O)c1ccc(/C=C2\SC(=S)N(c3cccc(C(F)(F)F)c3)C2=O)cc1 [CFIRinh172]

SMILES: N=C(N)N [Guanidine]
pKa value of protonated counterpart [2]: 12.48

SMILES: CC(C)(C)NCC(O)c1ccc(O)c(CO)c1 (stereo not drawn) [albuterol]
short circuit current on CFTR activation ([1]; albuterol 10 μM after amiloride): sharp current increase occurs immediately
